Reference: the C3SDB collision cross section collection

Assays:
[1] = instrument: DT, stepped-field
[2] = instrument: DT, stepped-field; remark: listed apart in the source
[3] = instrument: DT, single field, calibrated with Agilent tune mix (Agilent)

| collision cross section (N2) ([1]; [M+H]+) [Å²] | collision cross section (N2) ([1]; [M+Na]+) [Å²] | collision cross section (N2) ([1]; [M+2Na-H]+) [Å²] | SMILES | further results |
| --- | --- | --- | --- | --- |
|  |  | 277.05 | CCCCCCCC/C=C\C/C=C\CCCCC(=O)OC[C@H](COP(=O)(O)OCCN)OC(=O)CCCC/C=C\C/C=C\CCCCCCCC [PE(36:04)] | collision cross section (N2) ([1]; [M+K]+): 277.24 Å²; collision cross section (N2) ([1]; [M-H]-): 269.7 Å² |
| 272.47 | 277.92 | 279.47 | CCCCC/C=C\C/C=C\C/C=C\CCCCC(=O)O[C@H](COCCCCCCCCCCCCCCCCCC)COP(=O)(O)OCCN [PE(o36:03)] |  |
| 294.02 |  | 299.44 | CCCCC/C=C\C/C=C\CCCCCCCCCCCC(=O)O[C@H](COC(=O)CCCCCCCCCCCCCCCCC)COP(=O)(O)OC[C@H](N)C(=O)O [PS(40:02)] |  |
|  |  | 278.13 | CCCCC/C=C\C/C=C\C/C=C\C/C=C\CCCC(=O)O[C@H](COCCCCCCCCCCCCCCCC)COP(=O)(O)OCCN [PE(o36:04)] |  |
|  |  | 298.43 | CC/C=C\C/C=C\C/C=C\C/C=C\C/C=C\CCCC(=O)OC[C@H](COP(=O)(O)OC[C@H](N)C(=O)O)OC(=O)CCCCCCCCCCCCCCCCCCCC [PS(41:05)] |  |
|  | 297.42 |  | CCCCC/C=C\C/C=C\C/C=C\C/C=C\CCCC(=O)O[C@H](COC(=O)CCCCCCCCCCCCCCCCCCC)COP(=O)([O-])OCC[N+](C)(C)C [PC(40:04)] |  |
|  |  | 293.52 | CCCCC/C=C\C/C=C\C/C=C\C/C=C\CCCCCC(=O)O[C@H](COCCCCCCCCCCCCCCCCCC)COP(=O)(O)OCCN [PE(o40:04)] |  |
|  |  | 283.55 | CCCCC/C=C\C/C=C\C/C=C\CCCCCCC(=O)O[C@H](COC(=O)CCCCCCC/C=C\C/C=C\CCCCC)COP(=O)(O)OCCN [PE(38:05)] | collision cross section (N2) ([1]; [M+K]+): 282.77 Å²; collision cross section (N2) ([1]; [M-H]-): 274.82 Å² |
|  | 279.74 |  | CCCCC/C=C\C/C=C\CCCCCCCCCCCC(=O)O[C@H](COC(=O)CCCCCCCCCCCCCCC)COP(=O)(O)O [PA(38:02)] |  |
|  | 281.79 | 283.07 | CCCCC/C=C\C/C=C\C/C=C\C/C=C\CCCCCC(=O)O[C@H](COC(=O)CCCCCCC/C=C\CCCCCCCC)COP(=O)(O)O [PA(40:05)] |  |
| 292.62 | 296.28 |  | CCCCC/C=C\C/C=C\CCCCCCCCCCCC(=O)O[C@H](COC(=O)CCCCCCC/C=C\CCCCCCCC)COP(=O)(O)OC[C@H](N)C(=O)O [PS(40:03)] |  |
| 265.93 | 271.73 | 271.16 | CC/C=C\C/C=C\C/C=C\CCCCCCCC(=O)O[C@H](COC(=O)CCCCCCCCCCCCCCC)COP(=O)(O)OCCN [PE(34:03)] | collision cross section (N2) ([1]; [M-H]-): 263.76 Å² |
|  |  | 268.35 | CCCC/C=C\CCCCCCCC(=O)O[C@H](COCCCCCCCCCCCCCCCCCC)COP(=O)(O)OCCN [PE(o32:01)] |  |
|  | 277.43 | 279.8 | CCCCC/C=C\C/C=C\CCCCCCCCCC(=O)O[C@H](COC(=O)CCCCCCC/C=C\CCCCCCCC)COP(=O)(O)O [PA(38:03)] |  |
|  |  | 287.86 | CCCCC/C=C\C/C=C\C/C=C\C/C=C\CCCCCC(=O)O[C@H](COC(=O)CCCCCCC/C=C\C/C=C\CCCCC)COP(=O)(O)OCCN [PE(40:06)] | collision cross section (N2) ([1]; [M-H]-): 280.5 Å² |
|  | 273.65 | 273.55 | CCCCC/C=C\C/C=C\CCCCCCCC(=O)O[C@H](COCCCCCCCCCCCCCCCC)COP(=O)(O)OCCN [PE(o34:02)] |  |
|  |  | 282.48 | CCCCC/C=C\C/C=C\C/C=C\C/C=C\C/C=C\CCC(=O)O[C@H](COCCCCCCCCCCCCCCCC)COP(=O)(O)OCCN [PE(o38:05)] |  |

Further lines, the compound ahead of its results:

| SMILES | collision cross section (N2) ([1]; [M+H]+) [Å²] | collision cross section (N2) ([1]; [M+Na]+) [Å²] | collision cross section (N2) ([1]; [M+2Na-H]+) [Å²] | further results |
| --- | --- | --- | --- | --- |
| CCCCCCCC/C=C\CCCCCCCCCC(=O)O[C@H](COC(=O)CCCCCCCCCCC)COP(=O)([O-])OCC[N+](C)(C)C [PC(32:01)] | 276.5 | 279.16 |  | collision cross section (N2) ([1]; [M+HCOO]-): 284.71 Å² |
| CCCCCCCC/C=C\C/C=C\CCCCC(=O)O[C@H](COC(=O)CCCCCCC/C=C\CCCCCCCC)COP(=O)([O-])OCC[N+](C)(C)C [PC(36:03)] |  | 287.02 | 288.51 | collision cross section (N2) ([1]; [M+Cl]-): 293.42 Å²; collision cross section (N2) ([1]; [M+HCOO]-): 293.56 Å² |
| CCCCCCCCCCCCC=CC[C@@H](O)[C@H](COP(=O)([O-])OCC[N+](C)(C)C)NC(=O)CC=CCCCCCCCCCCCCCCCCCC [SM(40:02)] | 295.66 | 292.53 |  | collision cross section (N2) ([1]; [M+Cl]-): 299.55 Å²; collision cross section (N2) ([1]; [M+HCOO]-): 299.75 Å² |
| CC/C=C\C/C=C\C/C=C\C/C=C\C/C=C\C/C=C\CCC(=O)O[C@H](COC(=O)CCCCCCCCC/C=C\CCCCCCCCCC)COP(=O)(O)OC[C@H](N)C(=O)O [PS(44:07)] |  |  | 303.11 |  |
| CCCCCCCCCCCCCCCCCCCC(=O)N[C@@H](CO)[C@H](O)CCCCCCCCCCCCCCC [Cer(38:00)] | 267.37 |  |  |  |
| CCCCCCCC/C=C\CCCCCCCC(=O)O[C@H](COC(=O)CCCCCCCCCCCCCCCC)COP(=O)([O-])OCC[N+](C)(C)C [PC(35:01)] | 284.63 | 287.14 |  |  |
| CCCCCCCCCCCCC=CC[C@@H](O)[C@H](CO)NC(=O)CC=CCCCCCCCCCCCCCCCCCCCCCC [Cer(44:02)] |  |  |  | collision cross section (N2) ([1]; [M+H-H2O]+): 279.7 Å² |
| CCCCCCCCCCCCCCCCCCCCCCCC(=O)N[C@@H](COP(=O)([O-])OCC[N+](C)(C)C)[C@H](O)CCCCCCCCCCCCCCC [SM(42:00)] | 305.33 |  |  | collision cross section (N2) ([1]; [M+HCOO]-): 308.73 Å² |
| CCCCC/C=C\C/C=C\C/C=C\CCCCCCC(=O)O[C@H](COC(=O)CCCCCCC/C=C\CCCCCCCC)COP(=O)([O-])OCC[N+](C)(C)C [PC(38:04)] |  |  |  | collision cross section (N2) ([1]; [M+Cl]-): 298.46 Å²; collision cross section (N2) ([1]; [M+HCOO]-): 298.03 Å² |
| CC/C=C\C/C=C\C/C=C\C/C=C\C/C=C\C/C=C\CCC(=O)O[C@H](COC(=O)CCCCCCCCC/C=C\CCCCCCCC)COP(=O)(O)OC[C@H](N)C(=O)O [PS(42:07)] |  |  | 296.35 |  |
| CCCCC/C=C\C/C=C\CCCCCCCC(=O)O[C@H](COC(=O)CCCCCCCCCCCCC)COP(=O)([O-])OCC[N+](C)(C)C [PC(32:02)] |  | 276.86 |  |  |
| CCCCC/C=C\C/C=C\C/C=C\C/C=C\CCCCCC(=O)O[C@H](COC(=O)CCCCCCC/C=C\C/C=C\CCCCC)COP(=O)(O)OC[C@H](N)C(=O)O [PS(40:06)] | 287.73 | 291.7 | 295.61 | collision cross section (N2) ([1]; [M+K]+): 292.76 Å²; collision cross section (N2) ([1]; [M-H]-): 289.09 Å² |
| CCCCCC/C=C\CCCCCCCCCC(=O)O[C@H](COC(=O)CCCCCCC/C=C\CCCCCC)COP(=O)([O-])OCC[N+](C)(C)C [PC(34:02)] | 279.51 | 283.1 |  | collision cross section (N2) ([1]; [M+Cl]-): 289.37 Å²; collision cross section (N2) ([1]; [M+HCOO]-): 289.31 Å²; collision cross section (N2) ([1]; [M+K]+): 283.28 Å² |
| CC/C=C\C/C=C\C/C=C\CCCCCCCC(=O)O[C@H](COC(=O)CCCCC/C=C\C/C=C\C/C=C\C/C=C\CCCCC)COP(=O)(O)OC[C@H](N)C(=O)O [PS(40:07)] |  | 289.65 | 290.15 | collision cross section (N2) ([1]; [M-H]-): 287.37 Å² |
| CCCCCCCCCCCCC=CC[C@@H](O)[C@H](COP(=O)([O-])OCC[N+](C)(C)C)NC(=O)CC=CCCCCCCCCCCCCCCCCCCCCCC [SM(44:02)] | 307.52 | 306.5 |  |  |
| CCCCC/C=C\C/C=C\C/C=C\C/C=C\CCCCCC(=O)O[C@H](COC(=O)CCC/C=C\C/C=C\C/C=C\C/C=C\CCCCC)COP(=O)(O)OCCN [PE(42:08)] |  | 290.41 |  |  |
| CCCC/C=C\CCCCCCCC(=O)OC[C@H](COP(=O)([O-])OCC[N+](C)(C)C)OC(=O)CCCCCCCCC/C=C\C/C=C\CCCCC [PC(34:03)] | 277.12 | 281.98 |  | collision cross section (N2) ([1]; [M+Cl]-): 287.96 Å²; collision cross section (N2) ([1]; [M+HCOO]-): 288.8 Å² |
| CCCCCCCCCCCCCCCCCC(=O)N[C@@H](CO[C@@H]1O[C@H](CO)[C@@H](O)C(O)C1O)[C@H](O)CCCCCCCCCCCCCCC (stereo partly drawn) [GlcCer(36:00)] | 284.59 |  |  |  |
| CC/C=C\C/C=C\C/C=C\C/C=C\C/C=C\C/C=C\CCC(=O)O[C@H](COC(=O)CCCCCC/C=C\C/C=C\C/C=C\CCCCC)COP(=O)(O)OCCN [PE(42:09)] |  | 288.64 |  |  |
| CCCCCCCCCCCCC=CC[C@@H](O)[C@H](CO[C@@H]1O[C@H](CO)[C@@H](O)C(O)C1O)NC(=O)CC=CCC=CCCCCCCCCCCCCCCC (stereo partly drawn) [GlcCer(40:03)] |  | 290.28 |  |  |
| C[C@@H]1O[C@@H](OC[C@H]2O[C@@H](Oc3c(-c4ccc(O)c(O)c4)oc4cc(O)cc(O)c4c3=O)[C@H](O)[C@@H](O)[C@@H]2O)[C@H](O)[C@H](O)[C@H]1O [Rutin] |  |  |  | collision cross section (N2) ([2]; [M+H]+): 236.2 Å²; collision cross section (N2) ([2]; [M+Na]+): 251.61 Å²; collision cross section (N2) ([3]; [M+H]+): 232.6 Å²; collision cross section (N2) ([3]; [M-H]-): 231.04 Å² |
| NCCc1c[nH]c2ccc(O)cc12 [Serotonin] |  |  |  | collision cross section (N2) ([2]; [M+H]+): 151.9 Å²; collision cross section (N2) ([2]; [M+Na]+): 150.8 Å²; collision cross section (N2) ([3]; [M-H]-): 135.85 Å² |
| Cn1cncc1C[C@H](NC(=O)CCN)C(=O)O [L-Anserine] |  |  |  | collision cross section (N2) ([2]; [M+H]+): 155.97 Å²; collision cross section (N2) ([2]; [M+Na]+): 159.77 Å²; collision cross section (N2) ([3]; [M+H]+): 154.1 Å²; collision cross section (N2) ([3]; [M-H]-): 152.32 Å² |
